Measured values from patent publication US20260028354A1, “TETRAHYDRONAPHTHALENE DERIVATIVES AS ESTROGEN RECEPTOR DEGRADERS” (REGENT OF THE UNIVERSITY OF MICHIGAN, priority 2022, published 2026).
Read-outs that look alike come from different tables or passages of the source.

Tests used:
Assay type in all cases: cell-based
ER = ER (Homo sapiens (Human), UniProt P03372); assay: In-cell western blot analysis of ER for "B" compounds; details: 16 hours, read-out: ICW DC50
Method: R^T 2h, gentle shaking. Negative control: cells plus secondary antibodies (no primary antibodies); e, wash x 4 with PBS+0.05-0.1% Tween 20, gentel shaking; f, anti-rabbit-680 and anti-mouse-800 (both 1:1000 in LiCor block+0.05% Tween20, R^T 1h, gentle shaking, no light. LI-COR: 0.2% to reduce background; g, wash×4 with PBS+0.05% Tween 20, gental shaking; h, add 100 μL or 25 μL of PBS to each well and read on CLX plate reader. The relative ER percentage in treated cells were obtained by comparing the values of treated wells to those in untreated and DMSO-treated wells as 100%.

[1] = Western blot analysis for "B" compounds; details: read-out: Traditional Western Degradation Potency (DC50)
In short: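 Compound-treated cells lysed in RIPA buffer with protease inhibitors; equal protein (BCA) run on 10% SDS-PAGE, transferred to PVDF and probed with target antibodies. Band intensities quantified by densitometry and normalized to GAPDH.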

[2] = Cell growth assay (WST-8) for "B" compounds; details: T47D cell line, read-out: Cell growth Inhibition in T47D cell line IC50
Method: Cell Growth Assay. The cells were seeded at 1500/well in 96 well plates overnight. One day after the seeding, they were treated with indicated doses of compounds respectively, 4 days after the compound treatment, 10% WST-8 reagent was added to the culture medium and incubate in a CO2 incubator at 37° C. for 2.5 hours. Before reading, the plate was mixed gently on an orbital shaker for one minute to ensure homogeneous distribution of color. The absorbance was measured of each sample using a microplate reader at a wavelength of 450 nm. The relative absorbance was calculated against the vehicle control from three individually repeats.

Sequence of ER (P03372 whole entry): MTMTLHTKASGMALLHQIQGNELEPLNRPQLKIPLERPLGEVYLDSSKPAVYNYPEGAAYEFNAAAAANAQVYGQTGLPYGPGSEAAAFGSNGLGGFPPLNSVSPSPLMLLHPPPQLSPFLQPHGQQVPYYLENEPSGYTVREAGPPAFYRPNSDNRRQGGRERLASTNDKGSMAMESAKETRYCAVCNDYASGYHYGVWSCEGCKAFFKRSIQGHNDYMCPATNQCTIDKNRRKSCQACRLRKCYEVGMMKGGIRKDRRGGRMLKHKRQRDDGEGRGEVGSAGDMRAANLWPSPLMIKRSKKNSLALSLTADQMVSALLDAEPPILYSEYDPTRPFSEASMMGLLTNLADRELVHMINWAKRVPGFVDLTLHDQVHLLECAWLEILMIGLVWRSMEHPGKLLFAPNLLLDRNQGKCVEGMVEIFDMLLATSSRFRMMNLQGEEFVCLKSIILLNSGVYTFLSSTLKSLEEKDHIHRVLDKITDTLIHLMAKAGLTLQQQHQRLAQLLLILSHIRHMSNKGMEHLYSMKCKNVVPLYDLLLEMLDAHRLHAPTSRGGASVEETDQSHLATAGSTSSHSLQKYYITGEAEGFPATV

Row | Compound | DC50 (ER) | DC50 [1] | IC50 ([2]; T47D) | IC50 [2]
1 | O=C1CCC(Nc2ccc(N3CCN(CC4CCN(c5ccc([C@@H]6c7ccc(O)cc7CC[C@@H]6c6ccccc6)cc5)CC4)CC3)c(F)c2)C(=O)N1 (stereo partly drawn) [Compound B380, 3-((3-fluoro-4-(4-((1-(4-((1R,2S)-6-hydroxy-2-phenyl-1,2,3,4-tetrahydronaphthalen-1-yl)phenyl)piperidin-4-yl)methyl)piperazin-1-yl)phenyl)amino)piperidine-2,6-dione] | > 0.1 µM |  |  | 
2 | CN(CC1CC2(CCN(c3ccc([C@@H]4c5ccc(O)cc5CC[C@@H]4c4ccccc4)cc3)CC2)C1)[C@H]1C[C@H]2COc3cc4c(cc3N2C1)C(=O)N(C1CCC(=O)NC1=O)C4=O (stereo partly drawn) [Compound B331, (2S,3aS)-8-(2,6-dioxopiperidin-3-yl)-2-(((7-(4-((1R,2S)-6-hydroxy-2-phenyl-1,2,3,4-tetrahydronaphthalen-1-yl)phenyl)-7-azaspiro[3.5]nonan-2-yl)methyl)(methyl)amino)-2,3,3a,4-tetrahydro-1H,7H-pyrrolo[1′,2′:4,5][1,4]oxazino[2,3-f]isoindole-7,9(8H)-dione] | > 0.1 µM |  |  | 
3 | CN1C[C@@H]2CN(C(=O)CN3CC4(CCN(c5ccc([C@@H]6c7ccc(O)cc7CC[C@@H]6c6ccccc6)cc5)CC4)C3)CCN2c2cc3c(cc21)C(=O)N(C1CCC(=O)NC1=O)C3 (stereo partly drawn) [Compound B162, 3-((R)-3-(2-(7-(4-((1R,2S)-6-hydroxy-2-phenyl-1,2,3,4-tetrahydronaphthalen-1-yl)phenyl)-2,7-diazaspiro[3.5]nonan-2-yl)acetyl)-6-methyl-8-oxo-2,3,4,4a,5,6,8,10-octahydropyrazino[1,2-a]pyrrolo[3,4-g]quinoxalin-9(1H)-yl)piperidine-2,6-dione] | 0.01 to 0.1 µM |  |  | 
4 | O=C1CC[C@H](N2Cc3cc4c(cc3C2=O)OC[C@@H]2CN(CC3CCC5(CN(c6ccc([C@@H]7c8ccc(O)cc8CC[C@@H]7c7ccccc7)cc6)C5)OC3)CCN42)C(=O)N1 (stereo partly drawn) [Compound B349, (3S)-3-((4aS)-3-((2-(4-((1R,2S)-6-hydroxy-2-phenyl-1,2,3,4-tetrahydronaphthalen-1-yl)phenyl)-5-oxa-2-azaspiro[3.5]nonan-7-yl)methyl)-8-oxo-1,2,3,4,4a,5,8,10-octahydro-9H-pyrazino[1′,2′:4,5][1,4]oxazino[2,3-f]isoindol-9-yl)piperidine-2,6-dione] | 0.01 to 0.1 µM |  |  | 
5 | O=C1CCC(N2Cc3cc4c(cc3C2=O)OC[C@@H]2CN(CC3CCN(c5ccc([C@@H]6c7ccc(O)cc7CC[C@@H]6c6ccccc6)cc5)CC3)CCN42)C(=O)N1 (stereo partly drawn) [Compound B135, 3-((S)-3-((1-(4-((1R,2S)-6-hydroxy-2-phenyl-1,2,3,4-tetrahydronaphthalen-1-yl)phenyl)piperidin-4-yl)methyl)-8-oxo-1,2,3,4,4a,5,8,10-octahydro-9H-pyrazino[1′,2′:4,5][1,4]oxazino[2,3-f]isoindol-9-yl)piperidine-2,6-dione] |  | 0.01 to 0.1 µM | 0.001 to 0.01 µM | 
6 | O=C1CCC(N2C(=O)c3cc4c(cc3C2=O)CN(CC(=O)N2CCC3(CC2)CCN(c2cc(F)c([C@@H]5c6ccc(O)cc6CC[C@@H]5c5ccccc5)c(F)c2)CC3)C4)C(=O)N1 (mixture of isomers) [Compound B46, 6-(2-(9-(3,5-difluoro-4-((1S,2S)-6-hydroxy-2-phenyl-1,2,3,4-tetrahydronaphthalen-1-yl)phenyl)-3,9-diazaspiro[5.5]undecan-3-yl)-2-oxoethyl)-2-(2,6-dioxopiperidin-3-yl)-6,7-dihydropyrrolo[3,4-f]isoindole-1,3(2H,5H)-dione] |  | > 0.1 µM | > 0.01 µM | 
7 | C[C@H]1CC2(CCN(c3ccc([C@@H]4c5ccc(O)cc5CC[C@@H]4c4ccccc4)cc3)CC2)CN1C(=O)CN1Cc2cc3c(cc2C1)C(=O)N(C1CCC(=O)NC1=O)C3=O (mixture of isomers) [Compound B23, 2-(2,6-dioxopiperidin-3-yl)-6-(2-((S)-8-(4-((1R,2S)-6-hydroxy-2-phenyl-1,2,3,4-tetrahydronaphthalen-1-yl)phenyl)-3-methyl-2,8-diazaspiro[4.5]decan-2-yl)-2-oxoethyl)-6,7-dihydropyrrolo[3,4-f]isoindole-1,3(2H,5H)-dione] |  | 0.01 to 0.1 µM | > 0.01 µM | 
8 | O=C1CCC(N2C(=O)c3cc4c(cc3C2=O)CN(CC(=O)N2CCC3(CC2)CCN(c2ccc([C@@H]5c6ccc(O)cc6CC[C@@H]5C5CCCCC5)cc2)CC3)C4)C(=O)N1 (mixture of isomers) [Compound B47, 6-(2-(9-(4-((1R,2R)-2-cyclohexyl-6-hydroxy-1,2,3,4-tetrahydronaphthalen-1-yl)phenyl)-3,9-diazaspiro[5.5]undecan-3-yl)-2-oxoethyl)-2-(2,6-dioxopiperidin-3-yl)-6,7-dihydropyrrolo[3,4-f]isoindole-1,3(2H,5H)-dione] |  | 0.01 to 0.1 µM | 0.001 to 0.01 µM | 
9 | O=C1CCC(N2C(=O)c3cc4c(cc3C2=O)CN(CC(=O)N2CC3(CCN(c5ccc([C@@H]6c7ccc(O)cc7CC[C@@H]6c6ccccc6)cc5F)CC3)C2)C4)C(=O)N1 (mixture of isomers) [Compound B43, 2-(2,6-dioxopiperidin-3-yl)-6-(2-(7-(2-fluoro-4-((1R,2S)-6-hydroxy-2-phenyl-1,2,3,4-tetrahydronaphthalen-1-yl)phenyl)-2,7-diazaspiro[3.5]nonan-2-yl)-2-oxoethyl)-6,7-dihydropyrrolo[3,4-f]isoindole-1,3(2H,5H)-dione] |  | > 0.1 µM | 0.001 to 0.01 µM | 
10 | O=C1CCC(N2C(=O)c3cc4c(cc3C2=O)CN(CC(=O)N2CCC3(CC2)CCN(c2c(F)cc([C@@H]5c6ccc(O)cc6CC[C@@H]5c5ccccc5)cc2F)CC3)C4)C(=O)N1 (mixture of isomers) [Compound B45, 6-(2-(9-(2,6-difluoro-4-((1R,2S)-6-hydroxy-2-phenyl-1,2,3,4-tetrahydronaphthalen-1-yl)phenyl)-3,9-diazaspiro[5.5]undecan-3-yl)-2-oxoethyl)-2-(2,6-dioxopiperidin-3-yl)-6,7-dihydropyrrolo[3,4-f]isoindole-1,3(2H,5H)-dione] |  | > 0.1 µM | > 0.01 µM | 
11 | O=C1CCC(N2C(=O)c3cc4c(cc3C2=O)CN(C2CCN(CC3CCN(c5ccc([C@@H]6c7ccc(O)cc7CC[C@@H]6c6ccccc6)cc5)CC3)CC2)C4)C(=O)N1 (stereo partly drawn) [Compound B64, 2-(2,6-dioxopiperidin-3-yl)-6-(1-((1-(4-((1R,2S)-6-hydroxy-2-phenyl-1,2,3,4-tctrahydronaphthalcn-1-yl)phenyl)pipcridin-4-yl)methyl)piperidin-4-yl)-6,7-dihydropyrrolo[3,4-f]isoindole-1,3(2H,5H)-dione] |  | < 0.01 µM | 0.001 to 0.01 µM | 
12 | C[C@H]1CC2(CCN(c3ccc([C@@H]4c5ccc(O)cc5CC[C@@H]4c4ccccc4)cc3)CC2)CN1CC(=O)N1Cc2cc3c(cc2C1)C(=O)N(C1CCC(=O)NC1=O)C3=O (mixture of isomers) [Compound B30, 2-(2,6-dioxopiperidin-3-yl)-6-(2-((S)-8-(4-((1R,2S)-6-hydroxy-2-phenyl-1,2,3,4-tetrahydronaphthalen-1-yl)phenyl)-3-methyl-2,8-diazaspiro[4.5]decan-2-yl)acetyl)-6,7-dihydropyrrolo[3,4-f]isoindole-1,3(2H,5H)-dione] |  | > 0.1 µM | > 0.01 µM | 
13 | O=C1CCC(N2C(=O)c3cc4c(cc3C2=O)CN(CC(=O)N2CCC3(CC2)CCN(c2ccc([C@@H]5c6ccc(B(O)O)cc6CC[C@@H]5c5ccccc5)cc2)CC3)C4)C(=O)N1 (mixture of isomers) [Compound B50, ((5R,6S)-5-(4-(9-(2-(6-(2,6-dioxopiperidin-3-yl)-5,7-dioxo-3,5,6,7-tetrahydropyrrolo[3,4-f]isoindol-2(1H)-yl)acetyl)-3,9-diazaspiro[5.5]undecan-3-yl)phenyl)-6-phenyl-5,6,7,8-tetrahydronaphthalen-2-yl)boronic acid] |  | 0.01 to 0.1 µM | > 0.01 µM | 
14 | O=C1CCC(N2C(=O)c3cc4c(cc3C2=O)CN(CC(=O)N2CCC3(CC2)CCN(c2ccc([C@@H]5c6ccc(O)cc6CC[C@@H]5c5ccccc5)cc2)CC3)C4)C(=O)N1 (mixture of isomers) [Compound B12, 2-(2,6-dioxopiperidin-3-yl)-6-(2-(9-(4-((1R,2S)-6-hydroxy-2-phenyl-1,2,3,4-tetrahydronaphthalen-1-yl)phenyl)-3,9-diazaspiro[5.5]undecan-3-yl)-2-oxoethyl)-6,7-dihydropyrrolo[3,4-f]isoindole-1,3(2H,5H)-dione] |  | 0.01 to 0.1 µM |  | > 0.01 µM
15 | O=C1CCC(N2C(=O)c3cc4c(cc3C2=O)CN(CC(=O)N2CCC3(CC2)CCN(c2ccc([C@@H]5c6ccc(O)cc6CCC56CCCC6)cc2)CC3)C4)C(=O)N1 (stereo in doubt) [Compound B49, 2-(2,6-dioxopiperidin-3-yl)-6-(2-(9-(4-(6'-hydroxy-3',4'-dihydro-1'H-spiro[cyclopentane-1,2'-naphthalen]-1'-yl)phenyl)-3,9-diazaspiro[5.5]undecan-3-yl)-2-oxoethyl)-6,7-dihydropyrrolo[3,4-f]isoindole-1,3(2H,5H)-dione] |  | 0.01 to 0.1 µM | 0.001 to 0.01 µM | 
